Where “and” joins values, the source holds several entries; their conditions need not be identical. Identical values can stand only once.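 Tested at 5 concentrations; 48 h exposure; 96-well plates; endpoints linearly interpolated, else capped at highest concentration. Abbreviation: GI50, concentration required for 50% inhibition of growth. TGI denotes the concentration required for complete inhibition of growth.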
Experiments:
Experiment in all cases: inhibition of tumour cell growth, NCI panel, 48 h
K-562 leukemia = tested on: K-562 leukemia
LOX IMVI melanoma = tested on: LOX IMVI melanoma
NCI/ADR-RES ovarian = tested on: NCI/ADR-RES ovarian
SF-268 CNS = tested on: SF-268 CNS
NCI-H23 lung = tested on: NCI-H23 lung
HCT-116 colon = tested on: HCT-116 colon
MCF7 breast = tested on: MCF7 breast
M14 melanoma = tested on: M14 melanoma
DU-145 prostate = tested on: DU-145 prostate
SW-620 colon = tested on: SW-620 colon

SMILES | GI50 (K-562 leukemia) | TGI (K-562 leukemia) | GI50 (LOX IMVI melanoma) | TGI (LOX IMVI melanoma) | GI50 (NCI/ADR-RES ovarian) | TGI (NCI/ADR-RES ovarian) | GI50 (SF-268 CNS) | TGI (SF-268 CNS) | GI50 (NCI-H23 lung) | TGI (NCI-H23 lung) | GI50 (HCT-116 colon) | TGI (HCT-116 colon) | GI50 (MCF7 breast) | TGI (MCF7 breast) | GI50 (M14 melanoma) | TGI (M14 melanoma) | GI50 (DU-145 prostate) | TGI (DU-145 prostate) | GI50 (SW-620 colon) | TGI (SW-620 colon)
O=C(C=P(c1ccccc1)(c1ccccc1)c1ccccc1)CCl | 0.844 µM | 9.12 µM | 0.353 µM | 1.04 µM | 1.86 µM | 10.5 µM | 1.75 µM | 4.01 µM | 0.811 µM | 4.83 µM | 0.416 µM | 1.6 µM | 0.403 µM | 1.93 µM | 1.36 µM | 3.89 µM | 1.13 µM | 2.38 µM | 0.579 µM | 2.12 µM
Cn1cc(C2=C(c3cn(-c4ccccc4)c4ccccc34)C(=O)NC2=O)c2ccccc21 | 8.75 µM | > 25 µM | 19.2 µM | > 25 µM | 11.2 µM | > 25 µM | 20.4 µM | > 25 µM | 18.8 µM | > 25 µM | 11 µM | > 25 µM | 9.3 µM | > 25 µM | 13 µM | > 25 µM | > 25 µM | > 25 µM | 9.68 µM | > 25 µM
Cn1c(=O)nc2n(-c3ccc(Cl)cc3)c3cc(Cl)ccc3nc-2c1=O | – | 5.41 µM | – | 5.84 µM | – | 35.6 µM | – | 7.23 µM | – | 6.06 µM | – | 10 µM | – | 2.8 µM | – | 4.21 µM | – | 29 µM | – | 4.22 µM
NC(=S)N/N=C1\c2ccccc2-c2c(F)c(F)c(F)c(F)c21 | 2.09 µM | 6.61 µM | 2.34 µM | 7.64 µM | 5.77 µM | 16.7 µM | 5.26 µM | 12.5 µM | 9.79 µM | 25 µM | 1.67 µM | 3.15 µM | 2.39 µM | 14.3 µM | 4.53 µM | 15.6 µM | 5.39 µM | 17 µM | 1.79 µM | 3.66 µM
COc1cc(/C=C2\CCC/C(=C\c3ccc(O)c(OC)c3)C2=O)ccc1O | 2.71 µM | > 61 µM and 25.7 µM | 1.46 µM | 3.49 µM and 2.83 µM | 2.34 µM | 12.6 µM and 9.79 µM | 1.8 µM | 6.91 µM and 8.2 µM | 1.84 µM | 24.8 µM and 4.63 µM | 1.45 µM | 5 µM and 2.75 µM | 2.1 µM | 40.5 µM and 9.81 µM | 1.92 µM | 6.79 µM and 5.61 µM | 1.72 µM | 13.5 µM and 5.95 µM | 1.84 µM | 9.59 µM and 3.51 µM
N#CC(C#N)=C1CCOc2ccc(F)cc21 | 50.4 µM | > 100 µM | 11.7 µM | 23.9 µM | 16.1 µM | 29.6 µM | 14.6 µM | 48.4 µM | 14.8 µM | 28.7 µM | 8.86 µM | 21 µM | 11.3 µM | 23.3 µM | 19.5 µM | 45.9 µM | 14 µM | 34.6 µM | 29.6 µM | > 100 µM
Clc1cc(Cl)c(OCCCCCCN2CCNCC2)c(Cl)c1 | 1.92 µM | 4.24 µM | 1.75 µM | 3.26 µM | 8.86 µM | 26.1 µM | 5.85 µM | 21.1 µM | 7.31 µM | 21.8 µM | 1.67 µM | 3.19 µM | 1.89 µM | 4.2 µM | 1.84 µM | 3.65 µM | 4.45 µM | 15.9 µM | 1.91 µM | 3.75 µM
CCc1cnn2c(NCc3ccc[n+]([O-])c3)cc(N3CCCC[C@H]3CCO)nc12 | 0.0155 µM and 0.00449 µM | > 100 µM | < 0.01 µM and 0.00276 µM | > 100 µM | 0.162 µM and 0.146 µM | 2.53 µM and > 6.61 µM | < 0.01 µM and 0.00348 µM | 0.0576 µM and 0.373 µM | < 0.01 µM and 0.00416 µM | 0.0174 µM and 0.0214 µM | < 0.01 µM and 0.00345 µM | > 100 µM | < 0.01 µM and 0.00221 µM | > 100 µM | < 0.01 µM and 0.00438 µM | 0.0235 µM and 0.0351 µM | < 0.0127 µM and 0.00728 µM | > 10 µM | < 0.01 µM and 0.00322 µM | > 100 µM
C/C(=N\OCC(O)CNCCSCc1ccccc1)c1ccccc1Cl (stereo not given) | – | 92.9 µM | – | 36.5 µM | – | 41 µM | – | 34.6 µM | – | > 100 µM | – | 54.7 µM | – | 44.6 µM | – | 48 µM | – | 52.2 µM | – | 40.6 µM

From PubChem BioAssay (NCI)
